What was measured:
Stability in rat plasma = details: after 4 hours, 37° C.
HDAC11 = HDAC11 (Homo sapiens (Human), UniProt Q96DB2); experiment: Enzymatic screening, HDAC11 inhibition; format: biochemical
Method: (§1) For each test compound, 100× concentrated DMSO solutions at 8 doses were prepared and then diluted in assay buffer (25 mM Tris-HCl, pH 8, 130 mM NaCl, 0.05% Tween-20, 10% Glycerol) to obtain 5× concentrated solutions in relation to the final concentrations (typical final concentration range—6.4-200000 nM or 0.18-50000 nM, final DMSO content—1%). Then 10 μL solution of each test compound concentration were placed on a 96-well plate in triplicate and 15 μL of 3.33× concentrated enzyme solution in the assay buffer containing 3.33× concentrated BSA (final BSA concentration—2 mg/mL for HDAC4, HDAC5 and HDAC9 or 1 mg/mL for other isoforms) and in the case of HDAC6-3.33× concentrated TCEP (final TCEP concentration—200 μM) were added to each well. After a period of preincubation (incubation times and temperatures vary for different isoforms and are shown in table 1) 25 μL of solution containing the substrate were added. As substrate, FLUOR DE LYS® deacetylase substrate (Enzo Life Sciences, cat: BML-KI104, FdL), FLUOR DE LYS®-Green substrate (Enzo Life Sciences, cat: BML-KI572, FdL_G) or Boc-Lys(Tfa)-AMC (Bachem, cat: 4060676.005, Tfal)—2× concentrated solution in assay buffer were used. Following a reaction period (reaction times and temperatures vary for different isoforms and are reported in Table 1), 50 μL of the development solution consisting of concentrate FLUOR DE LYS® developer I (Enzo Life Sciences, ca: BML-KI105), diluted 200 times in buffer (50 mM Tris-HCl, pH 8, 137 mM NaCl, 2.7 mM KCl, 1 mM MgCl2) plus 2 μM TSA was added and, after 25 minutes at room temperature in the dark, using the Victor 1420 Multilabel Counter Perkin Elmer Wallac instrument, the fluorescence reading was carried out.

HDAC10 = HDAC10 (Homo sapiens (Human), UniProt Q969S8); experiment: Enzymatic screening, HDAC10 inhibition; format: biochemical
Method: as §1

HDAC3 = HDAC3 (Homo sapiens (Human), UniProt O15379); experiment: Enzymatic screening, HDAC3 inhibition; format: biochemical
Method: as §1

[1] = system: α-tubulin acetylation in 697 cell line; experiment: In vitro α-tubulin acetylation in 697 cell line (ELISA); format: cell-based; details: 16 hours, read-out: fold increase @ 1 uM TubAc (ratio of acetylated tubulin and total tubulin towards control)
Method: The in vitro α-tubulin acetylation determination was evaluated on B 697 promyelocytic cell line.
The test molecules were diluted from 20 mM stock solution in DMSO with RPMI 10% FCS+0.01% DMSO medium at 20× concentration compared to the final concentration, added to the cells (15×10^6 cells in a total volume of 30 mL in RPMI medium 10% FCS+0.01% DMSO) to obtain the final concentrations of 1000, 333, 111, 37 nM and incubated at 37° C., 5% CO2 for 16 hours.
At the end of the incubation period, 5×10^6 cells were taken from each sample, centrifuged for 5 minutes at 1100 rpm and washed in 0.9% NaCl at 4° C. The resulting pellet was lysed by treating at 4° C. for 30 minutes with 150 μl of Complete Lysis-M buffer containing protease inhibitors (Complete Lysis-M Roche+Complete Tablets, Mini Easypack, cat: 4719956001) and phosphatase inhibitor cocktails (PhosStop Easypack, Roche, cat: 4906837001), then centrifuged 10 minutes at 14,000 rpm (20817×g). 0.3 μg of supernatant (total protein extract) were diluted in 100 μl of 1×PBS and immobilized in Maxisorp F96 NUN-IMMUNO Plate (Nunc MaxiSorp flat-bottom, Nunc, cat: 442404) at room temperature overnight. Plates were washed twice with Wash Buffer (PBS1×+0.005% tween 20) and saturated for 1 hour at room temperature with 300 μL of 1×PBS containing 10% FCS. After washing twice with Wash Buffer, the plates were incubated for two hours at room temperature in the presence of anti-acetylated-α-tubulin antibody (Monoclonal Anti-acetylated-tubulin clone 6-11B-1, mouse ascites fluid, Sigma, cat: T6793), 100 μl/well diluted 1:1000 in 1×PBS containing 10% FCS) or with total anti-α-tubulin antibody (Monoclonal Anti-alpha-tubulin produced in mouse, Sigma, cat: T6074). Following washing of the pates 5 times with Wash Buffer the secondary antibody conjugated with the enzyme HRP (Goat anti-Mouse IgG, IgM, IgA (H+L), Thermo Fisher Scientific, cat: A10668), diluted 1:1000 in 1×PBS+10% FBS was added at the volume of 100 μl/well.
After washing 4 times, 100 μl/well of TMB substrate kit was added for 10 minutes at room temperature in the dark. The reaction was stopped by adding 50 μl of 2N H2SO4. The plates were read at Multiskan Spectrum spectrophotometer at a wavelength of 450 nm.
The degree of acetylation was calculated by dividing the absorbance obtained for acetylated α-tubulin by the absorbance of total tubulin.
The results of tubulin acetylation, expressed as fold increase of ratio of acetylated α-tubulin/total α-tubulin, of each sample relative to the control sample (untreated) are summarized in table 6.

recombinant human HDAC6 = recombinant human HDAC6 (Homo sapiens (Human), UniProt Q9UBN7); experiment: Enzymatic screening, HDAC6 inhibition (fluorogenic FdL_G substrate); format: biochemical
Chain of recombinant human HDAC6 (Q9UBN7 whole entry): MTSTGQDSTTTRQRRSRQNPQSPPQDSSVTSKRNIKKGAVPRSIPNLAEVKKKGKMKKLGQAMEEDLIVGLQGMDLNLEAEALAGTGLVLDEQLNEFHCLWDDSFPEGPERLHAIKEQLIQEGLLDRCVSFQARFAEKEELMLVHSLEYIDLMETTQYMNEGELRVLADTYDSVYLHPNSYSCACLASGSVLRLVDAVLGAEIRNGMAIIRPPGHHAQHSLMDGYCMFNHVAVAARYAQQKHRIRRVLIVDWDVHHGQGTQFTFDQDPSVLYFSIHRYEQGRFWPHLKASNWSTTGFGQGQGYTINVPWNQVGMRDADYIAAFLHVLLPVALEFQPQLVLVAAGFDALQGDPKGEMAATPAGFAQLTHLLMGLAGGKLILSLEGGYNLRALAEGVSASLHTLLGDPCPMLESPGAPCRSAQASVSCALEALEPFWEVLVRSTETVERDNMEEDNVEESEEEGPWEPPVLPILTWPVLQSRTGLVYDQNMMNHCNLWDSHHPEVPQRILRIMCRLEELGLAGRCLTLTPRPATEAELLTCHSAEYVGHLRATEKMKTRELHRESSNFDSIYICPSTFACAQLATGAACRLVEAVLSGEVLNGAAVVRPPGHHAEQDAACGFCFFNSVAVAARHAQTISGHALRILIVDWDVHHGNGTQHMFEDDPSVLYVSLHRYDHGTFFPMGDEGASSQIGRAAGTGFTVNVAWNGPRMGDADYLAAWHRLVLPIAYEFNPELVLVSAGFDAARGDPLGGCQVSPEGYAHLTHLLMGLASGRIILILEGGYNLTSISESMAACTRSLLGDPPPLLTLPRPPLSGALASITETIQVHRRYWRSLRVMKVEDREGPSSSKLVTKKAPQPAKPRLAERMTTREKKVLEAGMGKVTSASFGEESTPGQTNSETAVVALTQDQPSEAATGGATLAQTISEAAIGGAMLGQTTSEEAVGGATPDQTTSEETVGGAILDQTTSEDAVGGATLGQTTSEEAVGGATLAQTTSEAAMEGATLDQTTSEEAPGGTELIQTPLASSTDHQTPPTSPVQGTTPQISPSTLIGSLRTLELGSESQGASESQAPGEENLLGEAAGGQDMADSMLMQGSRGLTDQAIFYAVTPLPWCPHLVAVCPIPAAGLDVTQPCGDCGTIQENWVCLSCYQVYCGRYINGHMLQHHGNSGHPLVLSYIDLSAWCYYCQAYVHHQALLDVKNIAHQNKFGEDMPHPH
In short: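 Enzyme was preincubated with compound (8 doses, triplicate, 1% DMSO) in 25 mM Tris-HCl pH 8, 130 mM NaCl, 0.05% Tween-20, 10% glycerol, with BSA. A FLUOR DE LYS-Green substrate was then added, and fluorescence was read after developer plus 2 μM TSA.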

[2] = Stability to Phase I metabolism in rat S9 liver fraction; details: after 90 minutes, 37° C.
Method: Test compounds were incubated in rat and human liver S9 fraction at 37° C. up to 90 minutes in order to evaluate their stability to Phase I metabolism by hepatic enzymes. Each test compound was incubated at μM concentration (50 μM when the samples were analysed by UV/HPLC, 1 or 2 μM when the samples were analysed by LC-MS/MS) with S9 fraction (protein content 2 mg/m L) in 100 mM phosphate buffer (pH 7.4), 3.3 mM MgCl2 and 1.3 mM NADPH for 0, 10, 30, 60 and 90 minutes at 37° C. in a thermostated oscillating bath. The reaction was stopped placing samples on ice bath and adding acidified acetonitrile. After centrifugation (10 minutes at 14000 rpm) an aliquot of the supernatant was diluted with water, filtered with 0.45 μm regenerated cellulose syringe filters and injected in HPLC-UV or in LC-MS/MS. The percentage of the remaining amount at the various incubation times with respect to the initial amount were calculated.

[3] = Stability to Phase I metabolism in human S9 liver fraction; details: after 90 minutes, 37° C.
HDAC7 = HDAC7 (Homo sapiens (Human), UniProt Q8WUI4); experiment: Enzymatic screening, HDAC7 inhibition; format: biochemical
Chain of HDAC7 (Q8WUI4 whole entry): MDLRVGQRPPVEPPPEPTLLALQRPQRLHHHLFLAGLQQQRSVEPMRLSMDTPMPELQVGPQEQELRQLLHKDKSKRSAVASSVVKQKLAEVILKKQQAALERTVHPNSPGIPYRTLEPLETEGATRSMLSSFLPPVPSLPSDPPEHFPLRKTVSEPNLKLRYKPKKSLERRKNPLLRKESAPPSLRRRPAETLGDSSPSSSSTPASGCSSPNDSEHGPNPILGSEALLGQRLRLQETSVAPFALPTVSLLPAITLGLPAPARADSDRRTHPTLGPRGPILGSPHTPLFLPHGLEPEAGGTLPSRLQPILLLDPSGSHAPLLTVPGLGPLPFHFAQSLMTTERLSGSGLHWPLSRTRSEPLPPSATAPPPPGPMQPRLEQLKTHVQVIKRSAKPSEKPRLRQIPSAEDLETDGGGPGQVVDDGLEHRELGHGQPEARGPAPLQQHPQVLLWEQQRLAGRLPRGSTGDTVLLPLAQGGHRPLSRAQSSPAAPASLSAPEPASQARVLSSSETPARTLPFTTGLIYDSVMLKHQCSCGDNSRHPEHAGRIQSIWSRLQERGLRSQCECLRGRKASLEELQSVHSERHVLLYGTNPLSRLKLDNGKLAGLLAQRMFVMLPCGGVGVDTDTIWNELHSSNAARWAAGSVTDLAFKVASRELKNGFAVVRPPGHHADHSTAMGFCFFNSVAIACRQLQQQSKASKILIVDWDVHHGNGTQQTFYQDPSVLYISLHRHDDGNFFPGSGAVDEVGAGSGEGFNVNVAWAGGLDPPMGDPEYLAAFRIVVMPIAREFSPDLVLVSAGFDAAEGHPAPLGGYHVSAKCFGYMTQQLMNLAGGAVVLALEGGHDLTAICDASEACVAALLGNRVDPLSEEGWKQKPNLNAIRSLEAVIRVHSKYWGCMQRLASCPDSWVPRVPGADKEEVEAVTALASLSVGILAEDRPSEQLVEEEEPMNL
Method: as §1

HDAC8 = HDAC8 (Homo sapiens (Human), UniProt Q9BY41); experiment: Enzymatic screening, HDAC8 inhibition; format: biochemical
Chain of HDAC8 (Q9BY41 whole entry): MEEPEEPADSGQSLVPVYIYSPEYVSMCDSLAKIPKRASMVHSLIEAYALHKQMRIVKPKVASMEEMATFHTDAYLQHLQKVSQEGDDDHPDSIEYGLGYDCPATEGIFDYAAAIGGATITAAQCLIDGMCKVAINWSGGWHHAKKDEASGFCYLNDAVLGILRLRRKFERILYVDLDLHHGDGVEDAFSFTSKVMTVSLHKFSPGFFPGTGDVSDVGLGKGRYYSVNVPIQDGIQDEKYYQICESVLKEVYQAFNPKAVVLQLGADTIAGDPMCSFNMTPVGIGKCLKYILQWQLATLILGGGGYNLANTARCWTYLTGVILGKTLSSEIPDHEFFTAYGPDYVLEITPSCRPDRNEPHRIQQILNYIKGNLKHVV
Method: as §1

HDAC2 = HDAC2 (Homo sapiens (Human), UniProt Q92769); experiment: Enzymatic screening, HDAC2 inhibition; format: biochemical
Chain of HDAC2 (Q92769 whole entry): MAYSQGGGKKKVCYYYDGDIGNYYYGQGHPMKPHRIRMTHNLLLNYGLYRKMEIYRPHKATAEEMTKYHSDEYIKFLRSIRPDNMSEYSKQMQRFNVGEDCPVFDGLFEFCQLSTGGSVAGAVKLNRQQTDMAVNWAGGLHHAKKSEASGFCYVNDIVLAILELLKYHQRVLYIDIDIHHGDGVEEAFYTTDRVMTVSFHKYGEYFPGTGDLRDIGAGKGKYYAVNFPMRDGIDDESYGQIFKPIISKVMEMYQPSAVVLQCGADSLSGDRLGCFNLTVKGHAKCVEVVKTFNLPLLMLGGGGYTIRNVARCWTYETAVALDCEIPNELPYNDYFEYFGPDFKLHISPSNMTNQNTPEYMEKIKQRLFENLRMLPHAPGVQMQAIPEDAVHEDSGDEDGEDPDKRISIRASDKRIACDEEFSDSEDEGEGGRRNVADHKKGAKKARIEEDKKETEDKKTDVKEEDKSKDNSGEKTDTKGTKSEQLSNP
Method: as §1

HDAC4 = HDAC4 (Homo sapiens (Human), UniProt P56524); experiment: Enzymatic screening, HDAC4 inhibition; format: biochemical
Method: as §1

HDAC9 = HDAC9 (Homo sapiens (Human), UniProt Q9UKV0); experiment: Enzymatic screening, HDAC9 inhibition; format: biochemical
Method: as §1

[4] = Stability in human plasma; details: after 4 hours, 37° C.
HDAC5 = HDAC5 (Homo sapiens (Human), UniProt Q9UQL6); experiment: Enzymatic screening, HDAC5 inhibition; format: biochemical
Chain of HDAC5 (Q9UQL6 whole entry): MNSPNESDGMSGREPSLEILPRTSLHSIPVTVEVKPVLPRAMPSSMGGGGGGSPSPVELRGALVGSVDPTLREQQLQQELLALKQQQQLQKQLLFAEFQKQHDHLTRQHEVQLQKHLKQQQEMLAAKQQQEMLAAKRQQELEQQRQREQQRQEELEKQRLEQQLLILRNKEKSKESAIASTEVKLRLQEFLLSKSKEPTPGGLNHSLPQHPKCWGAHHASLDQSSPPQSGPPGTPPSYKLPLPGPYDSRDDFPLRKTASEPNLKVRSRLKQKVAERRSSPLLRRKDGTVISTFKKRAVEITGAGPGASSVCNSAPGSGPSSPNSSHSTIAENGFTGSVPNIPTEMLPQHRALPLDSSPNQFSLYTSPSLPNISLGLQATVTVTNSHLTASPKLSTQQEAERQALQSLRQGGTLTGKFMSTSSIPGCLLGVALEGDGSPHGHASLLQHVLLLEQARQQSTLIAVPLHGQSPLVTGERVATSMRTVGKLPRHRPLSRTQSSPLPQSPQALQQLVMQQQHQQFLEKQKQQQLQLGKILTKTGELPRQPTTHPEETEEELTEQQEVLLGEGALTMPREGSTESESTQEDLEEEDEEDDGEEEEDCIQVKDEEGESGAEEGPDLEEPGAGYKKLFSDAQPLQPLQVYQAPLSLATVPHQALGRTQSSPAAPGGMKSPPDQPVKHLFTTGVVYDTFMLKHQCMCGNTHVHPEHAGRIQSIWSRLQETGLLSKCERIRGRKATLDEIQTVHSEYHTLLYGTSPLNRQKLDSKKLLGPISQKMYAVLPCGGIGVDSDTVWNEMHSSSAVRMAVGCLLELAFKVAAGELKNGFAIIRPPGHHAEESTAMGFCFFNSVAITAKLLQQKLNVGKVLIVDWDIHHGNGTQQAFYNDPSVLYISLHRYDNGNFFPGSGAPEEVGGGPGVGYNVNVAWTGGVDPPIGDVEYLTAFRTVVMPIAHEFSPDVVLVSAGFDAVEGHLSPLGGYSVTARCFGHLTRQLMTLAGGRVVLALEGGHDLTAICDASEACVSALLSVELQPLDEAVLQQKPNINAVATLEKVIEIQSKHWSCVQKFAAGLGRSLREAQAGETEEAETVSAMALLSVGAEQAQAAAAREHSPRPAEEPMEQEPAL
Method: as §1

recombinant human HDAC1 = recombinant human HDAC1 (Homo sapiens (Human), UniProt Q13547); experiment: Enzymatic screening, HDAC1 inhibition (fluorogenic FdL_G substrate); format: biochemical
Chain of recombinant human HDAC1 (Q13547 whole entry): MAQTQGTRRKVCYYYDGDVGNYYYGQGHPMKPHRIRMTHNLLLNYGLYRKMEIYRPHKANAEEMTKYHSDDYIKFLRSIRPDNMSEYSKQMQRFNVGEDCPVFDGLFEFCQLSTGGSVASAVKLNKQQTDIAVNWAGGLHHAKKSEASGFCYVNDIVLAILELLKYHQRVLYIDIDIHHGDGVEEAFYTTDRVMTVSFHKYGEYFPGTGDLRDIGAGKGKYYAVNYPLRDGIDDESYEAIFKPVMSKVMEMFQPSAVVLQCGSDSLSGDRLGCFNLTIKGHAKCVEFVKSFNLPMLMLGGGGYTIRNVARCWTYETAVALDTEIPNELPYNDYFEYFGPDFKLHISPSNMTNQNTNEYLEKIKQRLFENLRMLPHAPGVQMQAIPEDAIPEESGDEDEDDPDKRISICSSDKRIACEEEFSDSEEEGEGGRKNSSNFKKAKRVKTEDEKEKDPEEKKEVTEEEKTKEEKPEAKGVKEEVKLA
In short: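 Recombinant human HDAC1 inhibition was measured fluorometrically using the FLUOR DE LYS-Green (FdL_G) substrate. Compounds at 8 doses (1% DMSO final) in Tris-HCl pH 8 buffer with NaCl, Tween-20 and glycerol were preincubated in triplicate with enzyme and 1 mg/mL BSA, then given substrate. Developer I plus 2 μM TSA was added, and fluorescence read after 25 minutes in the dark.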

Chain of HDAC11 (Q96DB2 whole entry, canonical isoform): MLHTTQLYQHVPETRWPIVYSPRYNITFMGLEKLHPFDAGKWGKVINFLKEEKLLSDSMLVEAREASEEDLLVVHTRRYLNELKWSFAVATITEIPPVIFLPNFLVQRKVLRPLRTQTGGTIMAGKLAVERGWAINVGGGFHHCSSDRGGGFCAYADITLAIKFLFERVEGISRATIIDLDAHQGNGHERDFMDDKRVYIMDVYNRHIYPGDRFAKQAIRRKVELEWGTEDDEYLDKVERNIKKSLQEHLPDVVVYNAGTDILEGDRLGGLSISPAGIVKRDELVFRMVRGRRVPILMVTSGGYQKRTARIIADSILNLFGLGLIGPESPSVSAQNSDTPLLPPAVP

Compound: Nc1nc2cc(-c3nnn(Cc4ccc(-c5nnc(C(F)F)o5)cn4)n3)ccc2o1 [compound 7, 5-(2-((5-(5-(difluoromethyl)-1,3,4-oxadiazol-2-yl)pyridin-2-yl)methyl)-2H-tetrazol-5-yl)benzo[d]oxazol-2-amine]
- residual percentage in RAT PLASMA (Stability in rat plasma): 81%
- IC50 (HDAC11): > 30 µM
- IC50 (HDAC10): > 30 µM
- IC50 (HDAC3): > 30 µM
- fold induction at 1 µM [1]: 16
- IC50 (recombinant human HDAC6): 0.013 µM
- residual percentage in RAT S9 FRACTION [2]: 96%
- residual percentage in HUMAN S9 FRACTION [3]: 92%
- IC50 (HDAC7): > 30 µM
- IC50 (HDAC8): > 200 µM
- IC50 (HDAC2): > 30 µM
- IC50 (HDAC4): > 30 µM
- IC50 (HDAC9): > 30 µM
- residual percentage in HUMAN PLASMA [4]: 76%
- IC50 (HDAC5): > 30 µM
- IC50 (recombinant human HDAC1): > 200 µM

Compound: O=C(Nc1cccc(-c2cn(Cc3ccc(-c4nnc(C(F)F)o4)cn3)nn2)c1)N1CCOCC1 [compound 6, N-(3-(1-((5-(5-(difluoromethyl)-1,3,4-oxadiazol-2-yl)pyridin-2-yl)methyl)-1H-1,2,3-triazol-4-yl)phenyl)morpholine-4-carboxamide]
- residual percentage in RAT PLASMA (Stability in rat plasma): 93%
- IC50 (HDAC11): > 30 µM
- IC50 (HDAC10): > 30 µM
- IC50 (HDAC3): > 30 µM
- fold induction at 1 µM [1]: 19
- IC50 (recombinant human HDAC6): 0.013 µM
- residual percentage in RAT S9 FRACTION [2]: 93%
- residual percentage in HUMAN S9 FRACTION [3]: 99%
- IC50 (HDAC7): > 30 µM
- IC50 (HDAC8): > 200 µM
- IC50 (HDAC2): > 30 µM
- IC50 (HDAC4): > 30 µM
- IC50 (HDAC9): > 30 µM
- residual percentage in HUMAN PLASMA [4]: 93%
- IC50 (HDAC5): > 30 µM
- IC50 (recombinant human HDAC1): > 200 µM

Compound: Cn1c(N)nc2cc(-c3cn(Cc4ccc(-c5nnc(C(F)F)o5)cn4)nn3)ccc21 [Compd. 17, 5-(1-((5-(5-(difluoromethyl)-1,3,4-oxadiazol-2-yl)pyridin-2-yl)methyl)-1H-1,2,3-triazol-4-yl)-1-methyl-1H-benzo[d]imidazol-2-amine]
- residual percentage in RAT PLASMA (Stability in rat plasma): 85%
- IC50 (HDAC11): > 30 µM
- IC50 (HDAC10): > 30 µM
- IC50 (HDAC3): > 30 µM
- fold induction at 1 µM [1]: 32
- IC50 (recombinant human HDAC6): 0.008 µM
- residual percentage in RAT S9 FRACTION [2]: 99%
- residual percentage in HUMAN S9 FRACTION [3]: 84%
- IC50 (HDAC7): > 30 µM
- IC50 (HDAC8): > 200 µM
- IC50 (HDAC2): > 30 µM
- IC50 (HDAC4): > 30 µM
- IC50 (HDAC9): > 30 µM
- residual percentage in HUMAN PLASMA [4]: 82%
- IC50 (HDAC5): > 30 µM
- IC50 (recombinant human HDAC1): > 200 µM

Compound: CCNc1nc2ccc(-c3cn(Cc4ccc(-c5nnc(C(F)F)o5)cn4)nn3)cc2[nH]1 [compound 18, 5-(1-((5-(5-(difluoromethyl)-1,3,4-oxadiazol-2-yl)pyridin-2-yl)methyl)-1H-1,2,3-triazol-4-yl)-N-ethyl-1H-benzo[d]imidazol-2-amine]
- residual percentage in RAT PLASMA (Stability in rat plasma): 69%
- IC50 (HDAC11): > 30 µM
- IC50 (HDAC10): > 30 µM
- IC50 (HDAC3): > 30 µM
- fold induction at 1 µM [1]: 11
- IC50 (recombinant human HDAC6): 0.008 µM
- residual percentage in RAT S9 FRACTION [2]: 91%
- residual percentage in HUMAN S9 FRACTION [3]: 82%
- IC50 (HDAC7): > 30 µM
- IC50 (HDAC8): > 200 µM
- IC50 (HDAC2): > 30 µM
- IC50 (HDAC4): > 30 µM
- IC50 (HDAC9): > 30 µM
- residual percentage in HUMAN PLASMA [4]: 84%
- IC50 (HDAC5): > 30 µM
- IC50 (recombinant human HDAC1): > 200 µM

Compound: O=C(Nc1cccc(-c2cn(Cc3ccc(-c4nnc(C(F)F)o4)c(F)c3)nn2)c1)N1CCOCC1 [compound 16, N-(3-(1-(4-(5-(difluoromethyl)-1,3,4-oxadiazol-2-yl)-3-fluorobenzyl)-1H-1,2,3-triazol-4-yl)phenyl)morpholine-4-carboxamide]
- residual percentage in RAT PLASMA (Stability in rat plasma): 84%
- IC50 (HDAC11): > 30 µM
- IC50 (HDAC10): > 30 µM
- IC50 (HDAC3): > 30 µM
- fold induction at 1 µM [1]: 19
- IC50 (recombinant human HDAC6): 0.029 µM
- residual percentage in RAT S9 FRACTION [2]: 88%
- residual percentage in HUMAN S9 FRACTION [3]: 86%
- IC50 (HDAC7): > 30 µM
- IC50 (HDAC8): > 200 µM
- IC50 (HDAC2): > 30 µM
- IC50 (HDAC4): > 30 µM
- IC50 (HDAC9): > 30 µM
- residual percentage in HUMAN PLASMA [4]: 75%
- IC50 (HDAC5): > 30 µM
- IC50 (recombinant human HDAC1): > 200 µM

Compound: FC(F)c1nnc(-c2ccc(Cn3cc(-c4ccc(NC5=NCCN5)cc4)nn3)cc2)o1 [compound 10, N-(4-(1-(4-(5-(difluoromethyl)-1,3,4-oxadiazol-2-yl)benzyl)-1H-1,2,3-triazol-4-yl)phenyl)-4,5-dihydro-1H-imidazol-2-amine]
- residual percentage in RAT PLASMA (Stability in rat plasma): 97%
- IC50 (HDAC11): > 30 µM
- IC50 (HDAC10): > 30 µM
- IC50 (HDAC3): > 30 µM
- fold induction at 1 µM [1]: 11
- IC50 (recombinant human HDAC6): 0.016 µM
- residual percentage in RAT S9 FRACTION [2]: 95%
- residual percentage in HUMAN S9 FRACTION [3]: 95%
- IC50 (HDAC7): > 30 µM
- IC50 (HDAC8): 29.5 µM
- IC50 (HDAC2): > 30 µM
- IC50 (HDAC4): > 30 µM
- IC50 (HDAC9): > 30 µM
- residual percentage in HUMAN PLASMA [4]: 89%
- IC50 (HDAC5): > 30 µM
- IC50 (recombinant human HDAC1): > 200 µM

From US20230286970A1, “NOVEL OXADIAZOLE-BASED SELECTIVE HDAC6 INHIBITORS” (ITALFARMACO S.P.A., priority 2020, published 2023)
